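Following 48 hours of exposure in 96-well plates, responses at five concentrations were used to interpolate endpoints linearly. Here, GI50 denotes the concentration required for 50% inhibition of growth.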 Calls of active or inactive are those of the source. No stated cut-off is given here; in the data, active = GI50 up to about 1.1 µM and inactive = higher.
Experiments:
Test in all cases: DTP human tumour cell line panel, 48 h
HCT-15 = system: HCT-15
SR = system: SR
SK-OV-3 = system: SK-OV-3
KM12 = system: KM12
HOP-62 = system: HOP-62
HT-29 = system: HT-29
UO-31 = system: UO-31
Hs-578T = system: Hs-578T
NCI-H226 = system: NCI-H226
SK-MEL-5 = system: SK-MEL-5
HCC 2998 = system: HCC 2998
SNB-75 = system: SNB-75
MDA-MB-231 = system: MDA-MB-231
SF-295 = system: SF-295
SK-MEL-2 = system: SK-MEL-2
MDA-N = system: MDA-N
NCI/ADR-RES = system: NCI/ADR-RES
A498 = system: A498
SNB-19 = system: SNB-19
OVCAR-3 = system: OVCAR-3
NCI-H23 = system: NCI-H23
TK-10 = system: TK-10
K562 = system: K562
RXF 393 = system: RXF 393
COLO 205 = system: COLO 205
OVCAR-5 = system: OVCAR-5
LOX IMVI = system: LOX IMVI
A549 = system: A549
UACC-257 = system: UACC-257
PC-3 = system: PC-3
MDA-MB-435 = system: MDA-MB-435
RPMI-8226 = system: RPMI-8226
SN12C = system: SN12C
BT-549 = system: BT-549
IGROV-1 = system: IGROV-1
OVCAR-4 = system: OVCAR-4
786-0 = system: 786-0
U-251 = system: U-251
MOLT-4 = system: MOLT-4
OVCAR-8 = system: OVCAR-8
M14 = system: M14
HOP-92 = system: HOP-92
T47D = system: T47D
NCI-H460 = system: NCI-H460
CAKI-1 = system: CAKI-1
NCI-H522 = system: NCI-H522
SF-268 = system: SF-268
UACC-62 = system: UACC-62
EKVX = system: EKVX
HCT-116 = system: HCT-116
Malme-3M = system: Malme-3M
CCRF-CEM = system: CCRF-CEM
ACHN = system: ACHN
SW-620 = system: SW-620
SF-539 = system: SF-539
MCF7 = system: MCF7
HL-60 = system: HL-60
SK-MEL-28 = system: SK-MEL-28
DU-145 = system: DU-145

CN1C(=O)C(=CNc2ccccc2[N+](=O)[O-])C(=O)N(C)C1=O
GI50 (HCT-15): > 100 µM
GI50 (SR): > 100 µM (inactive)
GI50 (SK-OV-3): > 100 µM (inactive)
GI50 (KM12): > 100 µM (inactive)
GI50 (HOP-62): > 100 µM (inactive)
GI50 (HT-29): > 100 µM (inactive)
GI50 (UO-31): > 100 µM (inactive)
GI50 (Hs-578T): > 100 µM (inactive)
GI50 (NCI-H226): > 100 µM (inactive)
GI50 (SK-MEL-5): > 100 µM (inactive)
GI50 (HCC 2998): > 100 µM (inactive)
GI50 (SNB-75): > 100 µM (inactive)
GI50 (MDA-MB-231): > 100 µM (inactive)
GI50 (SF-295): > 100 µM (inactive)
GI50 (SK-MEL-2): > 100 µM (inactive)
GI50 (MDA-N): > 100 µM (inactive)
GI50 (NCI/ADR-RES): > 100 µM (inactive)
GI50 (A498): > 100 µM (inactive)
GI50 (SNB-19): > 100 µM (inactive)
GI50 (OVCAR-3): > 100 µM (inactive)
GI50 (NCI-H23): > 100 µM (inactive)
GI50 (TK-10): > 100 µM (inactive)
GI50 (K562): > 100 µM (inactive)
GI50 (RXF 393): > 100 µM (inactive)
GI50 (COLO 205): > 100 µM (inactive)
GI50 (OVCAR-5): > 100 µM (inactive)
GI50 (LOX IMVI): > 100 µM (inactive)
GI50 (A549): > 100 µM (inactive)
GI50 (UACC-257): > 100 µM (inactive)
GI50 (PC-3): > 100 µM (inactive)
GI50 (MDA-MB-435): > 100 µM (inactive)
GI50 (RPMI-8226): > 100 µM (inactive)
GI50 (SN12C): > 100 µM (inactive)
GI50 (BT-549): > 100 µM (inactive)
GI50 (IGROV-1): > 100 µM (inactive)
GI50 (OVCAR-4): > 100 µM (inactive)
GI50 (786-0): > 100 µM (inactive)
GI50 (U-251): > 100 µM (inactive)
GI50 (MOLT-4): > 100 µM (inactive)
GI50 (OVCAR-8): > 100 µM (inactive)
GI50 (M14): > 100 µM (inactive)
GI50 (HOP-92): > 100 µM (inactive)
GI50 (T47D): > 100 µM (inactive)
GI50 (NCI-H460): > 100 µM (inactive)
GI50 (CAKI-1): > 100 µM (inactive)
GI50 (NCI-H522): > 100 µM (inactive)
GI50 (SF-268): > 100 µM (inactive)
GI50 (UACC-62): > 100 µM (inactive)
GI50 (EKVX): > 100 µM (inactive)
GI50 (HCT-116): > 100 µM (inactive)
GI50 (Malme-3M): > 100 µM (inactive)
GI50 (CCRF-CEM): > 100 µM (inactive)
GI50 (ACHN): > 100 µM (inactive)
GI50 (SW-620): > 100 µM (inactive)
GI50 (SF-539): > 100 µM (inactive)
GI50 (MCF7): 10 µM (inactive)

O=C1c2c(ccc3c2CCC3)CC1Cc1ccc2c(c1)CCC2 (stereo unspecified)
GI50 (HCT-15): 11 µM
GI50 (SR): 5.27 µM (inactive)
GI50 (SK-OV-3): 53.3 µM (inactive)
GI50 (KM12): 25.2 µM (inactive)
GI50 (HOP-62): 28.1 µM (inactive)
GI50 (HT-29): 17.6 µM (inactive)
GI50 (UO-31): 56.6 µM (inactive)
GI50 (Hs-578T): 10 µM (inactive)
GI50 (NCI-H226): 28.2 µM (inactive)
GI50 (SK-MEL-5): 12.5 µM (inactive)
GI50 (HCC 2998): 34.3 µM (inactive)
GI50 (SNB-75): 7.38 µM (inactive)
GI50 (HL-60): 4.69 µM (inactive)
GI50 (MDA-MB-231): 10.3 µM (inactive)
GI50 (SF-295): 26.9 µM (inactive)
GI50 (SK-MEL-2): 27.2 µM (inactive)
GI50 (MDA-N): 30.8 µM (inactive)
GI50 (NCI/ADR-RES): 28.2 µM (inactive)
GI50 (A498): 27.1 µM (inactive)
GI50 (SNB-19): 48.5 µM (inactive)
GI50 (OVCAR-3): 24.4 µM (inactive)
GI50 (NCI-H23): 21.6 µM (inactive)
GI50 (TK-10): 29.2 µM (inactive)
GI50 (K562): 14 µM (inactive)
GI50 (RXF 393): 25.7 µM (inactive)
GI50 (COLO 205): 20.3 µM (inactive)
GI50 (OVCAR-5): 90.2 µM (inactive)
GI50 (LOX IMVI): 25.4 µM (inactive)
GI50 (A549): 28.9 µM (inactive)
GI50 (UACC-257): 18.5 µM (inactive)
GI50 (SK-MEL-28): 51.8 µM (inactive)
GI50 (MDA-MB-435): 24 µM (inactive)
GI50 (RPMI-8226): 9.91 µM (inactive)
GI50 (SN12C): 23.4 µM (inactive)
GI50 (BT-549): 51.6 µM (inactive)
GI50 (IGROV-1): 28.6 µM (inactive)
GI50 (OVCAR-4): 27.5 µM (inactive)
GI50 (786-0): 32.3 µM (inactive)
GI50 (U-251): 24.2 µM (inactive)
GI50 (MOLT-4): 13.1 µM (inactive)
GI50 (OVCAR-8): 36.3 µM (inactive)
GI50 (M14): 32.1 µM (inactive)
GI50 (T47D): 3.05 µM (inactive)
GI50 (NCI-H460): 33.8 µM (inactive)
GI50 (SF-268): 33.7 µM (inactive)
GI50 (UACC-62): 8.24 µM (inactive)
GI50 (EKVX): 28.1 µM (inactive)
GI50 (HCT-116): 6.55 µM (inactive)
GI50 (Malme-3M): 28.8 µM (inactive)
GI50 (CCRF-CEM): 14.5 µM (inactive)
GI50 (ACHN): 36.1 µM (inactive)
GI50 (SW-620): 17.1 µM (inactive)
GI50 (SF-539): 91 µM (inactive)
GI50 (MCF7): 22.6 µM (inactive)
GI50 (DU-145): 27.3 µM (inactive)
